The values below are quoted from earlier work in patent publication US9789071B2 (G2B Pharma Inc., priority 2012, dated 2017).

What is called Tmax is the time from dosing to the highest level.

The conditions of data set [1]: normal human subjects, IM epinephrine injection.
For data set [2] the following is noted: IM injection.
The conditions of data set [3]: dogs.
The conditions of data set [4]: sublingual doses 5 to 40 mg, as the bitartrate salt.
For data set [5] the following is noted: dogs. The source holds these as a separate data set.
For data set [6] the following is noted: oral route.
Where [7] appears, read: nasal mucosa, needleless high-pressure injection.

As to `CNC[C@H](O)c1ccc(O)c(O)c1` [epinephrine], in data set [1], the Tmax was 69 ± 19 min. For the same compound, the “onset of action (Tmax)” value in data set [2] was 3 to 8 min. Further, in data set [3], the “time peak systolic pressure was maintained” value was “about 180 seconds”. In addition, in data set [3] (at 60 seconds), the peak systolic pressure is recorded as 200 % of baseline. In data set [3] (setting [7]), the “peak epinephrine levels in the blood” value is listed as about 20 ng/mL and the “time of peak (Tmax) epinephrine levels in the blood” value was 15 s. In addition, the plasma concentrations entry in data set [4] was “equivalent to IM injection”. Moreover, in data set [5] (CPR, 7.5 mg/kg/nostril epinephrine after 0.25 mg/kg/nostril intranasal phentolamine, 1% taurodeoxycholic acid), the “greatest epinephrine plasma concentrations” value was ~1,400 ng/mL. The absolute bioavailability entry in data set [5] (intranasal, with 1% taurodeoxycholic acid) is on record as “quite low”. In data set [6], the bioavailability entry was “negligible”.
